Source: patent US20130039956A1, “USE OF NITROCARBOXYLIC ACIDS FOR THE TREATMENT, DIAGNOSIS AND PROPHYLAXIS OF AGGRESSIVE HEALING PATTERNS” (priority 2010, published 2013)

Legend:
[1] = system: Tracheas of adult Wistar rats; test: Tissue damage due to barotrauma ex vivo (tracheal rings); format: cell-based; conditions: inhibitor 10 micromol, 6 hours before traumatization
Method: In order to determine the effects of nitrated fatty acids on mechanical trauma to tracheal cells, an ex vivo model was established. Tracheas of adult Wistar rats sacrificed with thiopental given intraabdominally were carefully resected (harvested). Whole (intact) tracheas were cultured in DMEM 10 (Sigma) supplemented with antibiotic/antimycotic drugs for 48 hours at 37° C. Tracheas were cut into five pieces of equal size. One piece was immediately analyzed, two were bathed in 0.9% saline, one was bathed in a solution containing native fatty acid in SDS (1%), and one was bathed in a solution containing nitro fatty acid, respectively, for 15 minutes each. The inner diameters of the tracheal rings were measured. A non-compliant balloon catheter for use in vascular interventions was chosen, so that the nominal balloon diameter was 15-20% larger than that of the trachea. One tracheal ring pretreated with 0.9% saline was left untreated; the other prepared tracheal rings were mounted on the balloon catheter, which was inflated to a pressure of 4 atm thereafter. Balloons were kept inflated for 4 hours, while being positioned in the culture medium. Thereafter, the tracheal rings were further cultivated in separate vials for 24 hours. In a separate set of investigations, sense/antisense ODNs for HO-1 (Invitrogen) directed against the translation initiation codon in the HO-1 cDNA was used to inhibit hemoxydase-1 synthesis. The cells were transfected using the Superfect transfection reagent (Qiagen) before traumatization. In another set of experiments, the HO inhibitor SnPP IX (Porphyrin Products, London, UK) was added to the culture medium 6 hours before traumatization at a dose of 10 micromol.
For analysis, the rings were cut into small strips using a no touch technique. Viability was tested using a MTT assay and apoptosis using a TUNEL assay. Anti-HO-1 antibodies (StressGen, Tebu, Le-Perray-en-Yvelines, France) were measured by Western blot and immunohistochemistry.

human dermal fibroblasts = test: Extra cellular matrix production (collagen-1) in response to TGF-β2 in dermal fibroblasts; format: cell-based
Method: In order to determine whether PPRA gamma stimulation due to nitrated fatty acids plays a role in the inventive inhibition of an aggressive healing pattern to an irritating stimulus, human dermal fibroblasts were investigated. A dominant-negative PPAR gamma mutant (L466A) cell clone was generated by polymerase chain reaction-based site-directed mutagenesis. Presence of PPAR gamma or absence was investigated using a PPAR gamma antibody reaction which was determined using an enhanced chemiluminescence detection system. Furthermore, one cell series was incubated with a selective irreversible PPAR gamma ligand (GW9662, 1 μmol), which effectively blocks PPAR gamma receptors.
Sequential cultivation of human dermal fibroblasts was performed in EMEM containing 5 mM glucose supplemented with 10% FCS under standard cultivation conditions. Cells were allowed to grow to confluence in a 96-well plate. Wild-type fibroblasts and PPAR gamma deficient fibroblasts were investigated by a set-up of 2×10 sample sets comprising: (1) blank control; (2) stimulation control; (3) preincubation with the PPAR gamma antagonist GW9662 (Cayman Chemical); (4) preincubation with the PPAR agonist troglitazone (25 μmol). In 2×4 sample sets, native fatty acids were added to the medium to achieve a final concentration of 10 and 50 μmol, respectively; in another 2×4 sets the nitrated fatty acids were added to the medium in the same concentration, while 2×2 sets served as controls. In 10 of the sets, TGF-β2 was added to the culture medium at a concentration of 25 ng/ml. Cultivation was continued for 48 hours and then processed in order to analyze collagen-1 as measured by enhanced chemiluminescence detection of immuncomplexes.

[2] = system: human umbellical endothelial cells (HUVEC); test: Adhesion, propagation and growth of endothelial cells on coated polystyrene films; format: cell-based; conditions: days 3, 7, 14, compared with native FA; further: key: 0: not superior to native FA (control); +: Superior to native FA; ++: superior to both; +++: outstanding effect
Method: Polystyrene scaffolds were prepared and pretreated in the same manner as performed in example 1 by using the same nitrocarboxylic acids as listed in table 1. The film samples were placed in a culture dish containing a gel matrix, in which human umbellical endothelial cells (HUVEC) had been allowed to grow to confluence. The culture medium consisted of 5% FCS, which was replaced every 5 days. Cultivation was performed according to standard conditions. Films were evaluated at days 3, 7, and 14 after careful extraction from the culture dishes, rinsing with saline solution, and staining with methylene blue. Using a reflected light microscope, the films were immediately examined to evaluate the following: Propagation of cells to the film center, cell confluidity, multilayer formation, and cell shape.

[3] = system: Murine macrophage-like cells RAW 264.7 and murine L929 fibroblasts; test: Monocyte/fibroblast co-culture on coated surgical suture material; format: cell-based; conditions: dip-coated suture material, 24 and 48 hours; compared with native FA; further: key: 0: not superior to native FA (control); +: Superior to native FA; ++: superior to both; +++: outstanding effect
From the text: In order to determine immunoreactions to foreign material and its consequence on fibrogenesis, co-cultures of fibroblasts and monocytes were used. Commercially available suture materials (propylene, polyamide, and silk) were dip-coated with corresponding native and nitrated fatty acids. Untreated suture material served as control. Treated and untreated suture materials were out in small pieces and placed in a 96-well plate.
Murine macrophage-like cells RAW 264.7 and murine L929 fibroblasts were cultured to a population density of 5×10(5) each. Cell suspensions were merged achieving a cellularity of approximately 2.5×10(5) cell/ml of each cell population which were added to the wells. The suture material samples were fully covered by the suspension. Wells were continuously and gently shaken throughout the incubation period.
Supernatants were collected for assays after 24 and 48 hours and analyzed for profibrotic cytokines IL-13, IL-4, and IL-6, TGF-β1, collagen I.

adult rats = test: Fibrogenesis after traumatic and thermal tissue damage in dermal wound healing in vivo; design: species or system rat; conditions: 100 micromol ethanolic solution on wound margins, 8 weeks, compared with native FA; further: key: 0: not superior to native FA (control); +: Superior to native FA; ++: superior to both; +++: outstanding effect
From the text: In order to determine the effects of nitrated fatty acids on fibrogenesis in response to traumatic and thermal tissue damage, an in vivo rat model was investigated. Paravertebral scalpel incision (two on each side) of approximately 1 cm in length and a depth of 1 mm were made in 12 anesthetized adult rats (150-200 g) of either sex after disinfection. Bleeding was stopped by manual compression. The entire length of the wound margins of one incision at each side were additionally cauterized using a 3-mm ball electrode connected to a DRE ASG-120 electrosurgical generator. Wound margins of one side were then covered with a sterile ethanolic 0.9% saline solution, or with a sterile ethanolic solution of the fatty acids (100 micromol), or with a sterile ethanolic solution of the nitrated fatty acids (100 micromol) using a sterile brush. A 1×10 mm cotton string that was bathed in the ethanolic solution containing 0.9% saline, native fatty acid or nitrated fatty acids was placed upon the incision site that had been closed by manual adaptation. The adaptation result and the cotton strings were fixed by an adhesive film. The animals were housed and fed according to institutional standards. The wound films were carefully removed after 2 weeks. Animals were euthanized after 8 weeks. The skin wounds were harvested, including the epidermis, dermis, and subcutaneous loose tissue with the surrounding normal tissue. The removed tissues were fixed in formalin and then embedded in paraffin. The cutting plane was vertical to the longitudinal axis of the former incisions. Slices (4-6 μm) were stained with H&E and Masson trichrome staining to evaluate the amount and density of collagen.

[4] = system: Human peripheral blood mononuclear cells (PBMCs); test: Adhesion of serum proteins and monocyte activation induced by coated silicone; format: cell-based; conditions: dip-coated silicone, PBMCs 3 days; compared with native FA; further: key: 0: not superior to native FA (control); +: Superior to native FA; ++: superior to both; +++: outstanding effect
Method: In order to determine the effect of coating implant materials with nitro fatty acids to reduce adsorption of adhesion molecules and monocyte activation, sterile silicone sheets were out in small pieces and coated with respective nirocarboxylic acid and the corresponding native fatty acids by dip coating. Uncoated silicone pieces served as controls. For each fatty acid two sets of silicone pieces were bathed in freshly drawn human serum for 1 hour at 37° C., and another two sets were bathed in saline solutions. One set of both coated and uncoated pieces was analyzed immediately for adhesion proteins and the other set was placed in 96-well plates after rinsing the silicone pieces. Human peripheral blood mononuclear cells (PBMCs), isolated from three healthy subjects, were added to each well. Wells were incubated for 3 days under standard conditions. Culture supernatants were assayed for IL-1beta, IL-6, IL-8, and chemoattractant protein 1 (MCP-1) levels at the start and end of experiments.
Before analyzing the silicone pieces for protein adsorption, they were bathed in saline for 5 minutes. Thereafter, one side was rinsed with saline as performed for both sides in the set used for culturing. There was marked adsorption of fibrinogen and […] C5b-9 on the uncoated silicone. […] No protein was found on the surface of the nitro fatty acid-coated sample that was rinsed, thus, indicating the weak adherence of serum proteins.

Cardiomyocytes = test: TGF-β1-inducible formation of extracellular matrix in cardiomyocytes under shear stress; format: cell-based; conditions: 10-100 μmol, shear stress up to 100 dyn/cm^2; compared with native FA
Method: Characterizing features of the fibrous remodelling in the heart are accentuated expression and deposition of extracellular matrix proteins (ECM). This has been attributed to increased mechanical forces via autocrine release of transforming growth factor-beta (TGF-beta). […] An established cell culture model was used to investigate the effect of shear stress on cardiomyocytes. Cardiomyocytes were cultured and transferred to a matrigel substrate. Plates with confluenced cells were placed into a shear force injury device (SFID). The SFID design is based on a cone-and-plate construction which is a well-defined rheological model in which a homogenously distributed laminar flow over the surface of the cells is generated by a rotating cone. The conical surface is positioned above a stationary flat plate and the fluid medium between these two surfaces is set in motion by rotating the cone to create a uniform level of fluid shear stress throughout the entire surface of the cells cultured on the coverslips.
A peak shear stress of 100 dyn/cm^2 could be applied without significant cell detachment enabling a maximum injury severity of 46%. Cells were exposed to FCS 1% without or with nitro-fatty acid, and the corresponding native fatty acid in a dosage range between 10 μmol and 100 μmol, 10 seconds before shear force application. Shear force peaks up to 100 dyn/cm^2 with a duration of 30 msec each with a repetition frequency of 60/minute were applied for 5, 10, 30 and 60 minutes. Thereafter the cell plates were washed and placed in FCS 1% for 24 hrs. The supernatant of the shear force investigation as well as that of the following culture phase was analysed. It could be shown that TGF-beta and ECM proteins (collagen I, fibronectin, laminin, elastin) increased after treatment in the control groups.

fibroblasts = test: Mechanical alteration of fibroblasts (cyclic stretching of coated polypropylene meshes); format: cell-based; conditions: day 21 to end of follow-up
From the text: In order to simulate the effects of chronic shear forces on a healing wound, an in vitro model was established. A flat balloon was placed on the bottom of a Petri dish. A silicone sheet was placed above and sealed with the side of the Petri dish. Then a 3 mm agar layer was casted on top of the sheet. Commercially available polypropylene meshes for hernia repair (microporous mesh, a low-weight and macroporous mesh with absorbable polyglactin filaments, and a heavy-weight and microporous mesh) were placed on the agar plates and fixed at 4 points at the side of the Petri dish. This setting enabled stretching of the meshes by filling the balloons with air, which was performed at 10-second intervals using an automated pumping device. The model can be used to evaluate the effect of three-dimensional (3D) shear forces on cell growth during cell cultivation. Preincubated suspensions of fibroblasts (1.5×10(5) cells) in a culture medium (10% FCS) were added to the culture dishes and allowed to grow for 48 hours. Cyclic stretching was started at day 3. Histological analysis was performed from the central portions of the meshes at day 7, at day 21, and after 8 weeks. The scaffolds were detached from the culture plate and carefully rinsed. Then, they were cut into pieces, casted, and further processed for standard histology and immunohistology. Care was taken to achieve a cutting plane that was vertical to the surface plane of the meshes. Histological analysis evaluated the cellularity, the content of extra cellular matrix (ECM), and the magnitude of protein synthesis. Meshes were dip-coated with native and nitro fatty acids or left blank in the same manner as in example 1. The uncoated meshes served as controls.

In the case of `C=CC1=C(C)C2=Cc3c(C=C)c(C)c4[n]3[Sn]([Cl])([Cl])[n]3c(c(C)c(CCC(=O)O)c3=CC3=NC(=C4)C(C)=C3CCC(=O)O)=CC1=N2` [HO-1 inhibitor, reference compound], the HO-1 production [1] is reported as “reduced the HO-1 production to the lower detection limit or complete absence”.

In the case of `Cc1c(C)c2c(c(C)c1O)CCC(C)(COc1ccc(CC3SC(=O)NC3=O)cc1)O2` (stereo not shown) [PPAR agonist, troglitazone, reference compound], the “reduction of collagen-1 concentrations as compared to the control” value (human dermal fibroblasts; TGF-β2 stimulated, PPAR-positive cells, 25 μmol) is reported as 35-40%.

`O=C(Nc1ccccc1)c1cc([N+](=O)[O-])ccc1Cl` [PPAR gamma antagonist, reference compound] was tested, and the “collagen-1 after TGF-β2 stimulation” value (human dermal fibroblasts; PPAR gamma-positive and -negative cells) was “marked increase of collagen-1”.

With `CCCCCC=CCC=C(C/C=C\CCCCC(=O)O)[N+](=O)[O-]` [compound 20, 9-nitro-cis-6,9,12-octadecatrienoic acid] the “Relative differences: effect on adhesion, propagation and growth of endothelial cells” value [2] was 0, the “Relative effect on profibrotic cytokines and collagen I on suture material” value [3] was 0 and the “Relative effect on fibrogenesis (scar formation) in dermal wound healing” value (adult rats) was “+”. For the same compound, the “Relative effect on collagen-1 production in response to TGF-β2” value (human dermal fibroblasts; 10 and 50 μmol, TGF-β2 25 ng/ml, 48 hours, compared with native FA) was “+”, the “Relative effect on serum protein adhesion and monocyte activation” value [4] was “+” and the “Relative efficacy to suppress TGF-beta and ECM proteins in cardiomyocytes” value (Cardiomyocytes) was “+”.

nitrooleic acid was tested, and the “density of actinmyosin filaments in fibroblasts” value (fibroblasts) was “more actin-myosin fibers (intra-cellular green filaments) than fibroblasts within the coated meshes”.
